Laboratory results: ChEMBL document CHEMBL5360584, “Sequence-Specific Dual DNA Binding Modes and Cytotoxicities of N-6-Functionalized Norcryptotackieine Alkaloids” (J Nat Prod, 2023)
Blank lines part the entries; values can stand above or below the compound they belong to. Activity calls are given as the source filed them. No cut-off for these calls is given here.

Tests used:
Calf thymus DNA [1] = experiment: Binding affinity to calf thymus DNA assessed as change in absorption by UV-Vis spectrophotometric analysis; assay type: nucleic-acid assay; conditions: Bos taurus
Calf thymus DNA [2] = experiment: Binding affinity to calf thymus DNA assessed as dissociation constant by UV-Vis spectroscopic analysis; assay type: nucleic-acid assay, Bos taurus
Calf thymus DNA [3] = experiment: Binding affinity to calf thymus DNA assessed as dissociation constant; assay type: nucleic-acid assay, Bos taurus
HEK293 = experiment: Cytotoxicity against human HEK293 cells assessed as reduction in cell viability incubated for 24 hrs by MTT assay; assay type: functional, cell-based; conditions: HEK293, 24 h
HeLa = experiment: Cytotoxicity against human HeLa cells assessed as reduction in cell viability incubated for 24 hrs by MTT assay; assay type: functional, cell-based
SK-OV-3 = experiment: Cytotoxicity against human SK-OV-3 cells assessed as reduction in cell viability incubated for 24 hrs by MTT assay; assay type: functional, cell-based; conditions: SK-OV-3, 24 h
B16-F10 = experiment: Cytotoxicity against mouse B16F10 cells assessed as reduction in cell viability incubated for 24 hrs by MTT assay; assay type: functional, cell-based; conditions: B16-F10, 24 h
OVCAR-3 = experiment: Cytotoxicity against human OVCAR-3 cells assessed as reduction in cell viability incubated for 24 hrs by MTT assay; assay type: functional, cell-based; conditions: OVCAR-3, 24 h
Calf thymus DNA [4] = experiment: Binding affinity to calf thymus DNA assessed as dissociation constant measured at 337 nm absorbance by UV-Vis spectroscopic analysis; assay type: nucleic-acid assay, Bos taurus
Calf thymus DNA [5] = experiment: Binding affinity to calf thymus DNA assessed as dissociation constant measured at 332 nm absorbance by UV-Vis spectroscopic analysis; assay type: nucleic-acid assay, Bos taurus
Calf thymus DNA [6] = experiment: Binding affinity to calf thymus DNA assessed as dissociation constant by reverse titration method; assay type: nucleic-acid assay, Bos taurus

Activity (Calf thymus DNA [1]): Active
Compound: CN(C)CCn1c2ccccc2c2cc3ccccc3nc21

Activity (Calf thymus DNA [1]): Active
Compound: c1ccc2nc3c(cc2c1)c1ccccc1n3CCCN1CCCC1

Compound: C[n+]1c2ccccc2cc2[n-]c3ccccc3c21 [CRYPTOLEPINE]
Kd (Calf thymus DNA [2]): 0.24 µM | Kd (Calf thymus DNA [3]): 0.33 µM

Activity (Calf thymus DNA [1]): Active
Compound: c1ccc2[nH]c3nc4ccccc4c-3cc2c1
IC50 (HEK293): > 100 µM | IC50 (HeLa): > 100 µM | IC50 (SK-OV-3): > 100 µM | IC50 (B16-F10): > 100 µM | IC50 (OVCAR-3): > 100 µM

Activity (Calf thymus DNA [1]): Active
Compound: CN(C)CCCCn1c2ccccc2c2cc3ccccc3nc21

Activity (Calf thymus DNA [1]): Active
Compound: CN(CCCn1c2ccccc2c2cc3ccccc3nc21)CCCn1c2ccccc2c2cc3ccccc3nc21

Activity (Calf thymus DNA [1]): Active
Compound: CCCCn1c2ccccc2c2cc3ccccc3nc21

Activity (Calf thymus DNA [1]): Active
Compound: c1ccc2nc3c(cc2c1)c1ccccc1n3CCCn1ccnc1

Activity (Calf thymus DNA [1]): Active
Compound: c1ccc2nc3c(cc2c1)c1ccccc1n3CCCN1CCOCC1

Activity (Calf thymus DNA [1]): Active
Compound: c1ccc(-n2c3ccccc3c3cc4ccccc4nc32)cc1

Activity (Calf thymus DNA [1]): Active
Compound: c1ccc(Cn2c3ccccc3c3cc4ccccc4nc32)cc1

Activity (Calf thymus DNA [1]): Active
Compound: Cn1c2ccccc2c2cc3ccccc3nc21
IC50 (HEK293): > 100 µM | IC50 (HeLa): > 100 µM | IC50 (SK-OV-3): > 100 µM | IC50 (B16-F10): > 100 µM | IC50 (OVCAR-3): > 100 µM

Activity (Calf thymus DNA [1]): Active
Compound: CN1CCN(CCCn2c3ccccc3c3cc4ccccc4nc32)CC1

Activity (Calf thymus DNA [1]): Active
Compound: CN(C)CCCn1c2ccccc2c2cc3ccccc3nc21
Kd (Calf thymus DNA [2]): 20 µM | Kd (Calf thymus DNA [4]): 120 µM | Kd (Calf thymus DNA [5]): 10 µM | Kd (Calf thymus DNA [6]): 17 µM
